# Legend:
# [1] = In vitro dissolution (USP apparatus II, paddle); assay type: physicochemical; details: 0.45% w/v SLS in 0.05 M acetate buffer pH 4.5, 37 °C
# Method: The samples were mixed in a 5 mL tube with 2 mL of the solvent at a concentration of 1 mg/mL using a multi-mixer (SLRM-3, Seoulin Biosciences, Pangyo, Republic of Korea) for 48 h at 25 °C. The mixtures were then centrifuged at 13,000 rpm for 10 min (Eppendorf 5425R, Hamburg, Germany) and manually filtered using a 0.45 μm polytetrafluoroethylene (PTFE-H) syringe filter. The absorbance of the filtered samples at 233 nm was measured using a UV-VIS spectrophotometer. Similarly, dissolution was assessed using the USP dissolution apparatus II (paddle) (Varian 705 DS, Cary, NC, USA) at 50 rpm in 500 mL of 0.45% w/v SLS in 0.05 M acetate buffer (pH 4.5) at 37 ± 0.5 °C. The cocrystal samples (equivalent to 10 mg ezetimibe) were weighed and added into the dissolution vessel (n = 3). Aliquots were collected at predetermined time points: 5 min, 10 min, 15 min, 30 min, 45 min, 60 min, 90 min, and 120 min. The displaced volume was replenished with fresh buffer after each sampling. The collected samples were filtered through a 0.45 µm RC syringe filter and subjected to UV-VIS spectrophotometer.
# [2] = In vivo pharmacokinetics after single oral gavage; details: rat, male Sprague Dawley rats, fasted, plasma, table prints dose 10 mg/kg for all groups (methods: CRYS101 10 mg/kg, CRYS102-104 30 mg/kg)
# Method: The stock standard solution was prepared by dissolving ezetimibe at 0.5 mg/mL in 40% MeOH. The absorbance of the standards was measured at 233 nm using UV-VIS spectrophotometer (Optizen pop, Mecasys®, Seoul, Republic of Korea). The bioanalysis was performed using validated LC-MS/MS methods with MRM detection (details in Supplementary Materials). The method was developed using an Agilent 1290 Infinity II BioLC system coupled with an Agilent 6495D Triple-Quadrupole mass spectrometer, employing electrospray ionization (ESI). Chromatographic separation was achieved on a Kintex C18 column (2.6 μm, 100 × 3 mm) maintained at 30 °C, using an isocratic mobile phase of water-acetonitrile (20:80 v/v) at 0.25 mL/min flow rate. The run time was optimized to 5 min with a 2 μL injection volume. Mass spectrometric detection utilized multiple reaction monitoring (MRM) in negative polarity mode for ezetimibe ([M − H]^− m/z 408.1 → 271.1) and positive mode for the internal standard itraconazole ([M + H]^+ m/z 705.2 → 391.6). Detailed description is included in the Supplementary Materials.
# In vivo pharmacokinetic profile of ezetimibe cocrystal formulations was assessed in male Sprague Dawley rats (n = 4 per group, 7–8-week-old, mean weight 271.1 g). The SD rats were obtained from G-Bio (Gwangju, Republic of Korea). They were maintained under a 12 h light/dark cycle and provided with free access to food and water. The animal experimental protocol was approved by the Institutional Animal Care and Use Committee (IACUC) of Mokpo National University (Mokpo, Republic of Korea; approval no. MNU-IACUC-2025-015).
# The rats were fasted overnight before oral administration, and four formulation groups received single oral doses through gavage: Group 1 (CRYS101) at 10 mg/kg and Groups 2–4 (CRYS102-104) at 30 mg/kg. Blood samples (200 μL) were collected from the femoral artery at predetermined time points after the administration. The collected samples were centrifuged at 16,000× g for 5 min at 4 °C, and the plasma was stored at −70 °C until analysis. The plasma samples analyzed using a validated UPLC-MS/MS method with 1 ng/mL lower quantification limit.
structure (smiles),measurement,setting,value
O=C1[C@H](CC[C@H](O)c2ccc(F)cc2)[C@@H](c2ccc(O)cc2)N1c1ccc(F)cc1 [Ezetimibe],In vitro release at 120 min,[1],45%
same,AUC(0-inf),[2]; SD not determined,41.8 ng·h/mL
same,AUC(0-t),"[2]; n = 4/group, mean ± SD",11 ± 8.63 ng·h/mL
same,Cmax,"[2]; n = 4/group, mean ± SD",6.73 ± 4.29 ng/mL
same,Tmax,"[2]; n = 4/group, mean ± SD",1.33 ± 0.76 h

# Source: publication PMC12655579, “Cocrystallization of Ezetimibe with Organic Acids: Stoichiometric Optimization for Improved Solubility and Bioavailability” (Pharmaceutics, 2025)
